The values that follow come from article PMC9304232 (Epilepsia, 2022).

What is called pIC50 is the negative decadic logarithm of the IC50, by convention in mol/L. High values mean a low IC50, low ones a high IC50. As usually defined, the pEC50 is the negative decadic logarithm of the EC50, by convention in mol/L. Broadly, the EC50 is the concentration that produces a half-maximal response.

pEC50, pIC50: −log10 of the molar value. Like-named read-outs stand apart in the source and are kept apart here.

Data set [1] concerns the target T1, hNaV1.6 (Homo sapiens, UniProt Q9UQD0). The data set can be described thus: Peak INa tonic block. In kind it is cell-based. The conditions noted are these: for Peak INa TB, slope: Hill slope; for Peak INa TB, slope / Ratio to persistent INa (peak INa TB): hNaV1.6; for Ratio to persistent INa (peak INa TB): TB IC50 / persistent INa IC50.
Data set [2] concerns the target T1, hNaV1.6. Nature of the data set: ATX‐II‐induced persistent INa, whole‐cell patch clamp. The conditions noted are these: for Persistent INa, slope: Hill slope of IC50 fit, hNaV1.6. (In general: Patch clamp records ionic current or voltage across a cell membrane.)
For data set [3], the system named is male CD‐1 mice. The data set can be described thus: Protective index. The conditions noted are these: for PI (plasma TC50/plasma EC50): based on free plasma concentrations. Format: in vivo, mouse.
For data set [4], the system named is male CD‐1 mice. The data set can be described thus: Mouse maximal electroshock seizure. In kind it is in vivo. The conditions noted are these: for MES ED50 (increasing latency to tonic extension seizures): PRAX‐562 po, CBZ and LTG ip. On the technique in general: Protection in the maximal electroshock model is a classic sign of anticonvulsant action.
The target in data set [5] is T1, hNaV1.6. Nature of the data set: Peak INa voltage‐dependent block. The conditions noted are these: for Peak INa VDB, slope: Hill slope; for Ratio to persistent INa (peak INa VDB): VDB IC50 / persistent INa IC50.
Data set [6] addresses T1, hNaV1.6. The data set can be described thus: Peak INa use‐dependent block. The conditions noted are these: for Peak INa UDB, 10 Hz, slope: Hill slope; for Peak INa UDB, 10 Hz, slope / Ratio to persistent INa (peak INa UDB) / Ratio to peak INa TB (peak INa UDB): hNaV1.6; for Use‐dependent block at a stimulation frequency of 10 Hz: hNaV1.6, Figure 2E,F; for Ratio to persistent INa (peak INa UDB): UDB IC50 / persistent INa IC50; for Ratio to peak INa TB (peak INa UDB): preference of use‐dependent block over tonic block. In kind it is cell-based.

Data set [7] concerns male CD‐1 mice. Nature of the data set: Mouse spontaneous locomotor activity. In kind it is in vivo. The settings on record: for sLMA TD50: PRAX‐562 po, CBZ and LTG ip, dose reducing sLMA by 50%; for sLMA TC50, free brain: calculated free brain concentration.
Data set [8] relates to mice with Scn8a (NaV1.6‐N1768D/+, NaV1.6‐R1872W/+) or Scn2a (NaV1.2‐Q54) variants. The settings on record: Scn8a or Scn2a gain‐of‐function variants; ref [20], [21], [22]; cited from earlier work.
Data set [9] deals with T2, hNaV1.2 (Homo sapiens, UniProt Q99250). The data set can be described thus: Peak INa tonic block, patch clamp. In kind it is cell-based. The conditions noted are these: TB IC50 / persistent IC50.
For data set [10], the target named is T3, hNaV1.5 (Homo sapiens, UniProt Q14524). The data set can be described thus: Peak INa voltage‐dependent block, patch clamp. The settings on record: VDB IC50 / persistent IC50. Format: cell-based.
Data set [11] deals with T4, hNaV1.1 (Homo sapiens, UniProt P35498). Nature of the data set: Peak INa tonic block, patch clamp. In kind it is cell-based. The settings on record: TB IC50 / persistent IC50.
Data set [12] has as its target T3, hNaV1.5. The data set can be described thus: Peak INa tonic block, patch clamp. Format: cell-based. The settings on record: TB / persistent IC50.
Data set [13] has as its system hippocampal CA1 pyramidal neurons. Nature of the data set: Evoked action potential firing. The settings on record: wild‐type mouse CA1 neurons. In kind it is cell-based.
The target of data set [14] is T4, hNaV1.1. Nature of the data set: Peak INa voltage‐dependent block, patch clamp. In kind it is cell-based. The conditions noted are these: VDB IC50 / persistent IC50.
In data set [15] the target is T2, hNaV1.2. The data set can be described thus: Peak INa voltage‐dependent block, patch clamp. The settings on record: VDB IC50 / persistent IC50. In kind it is cell-based.
Setting [16] is: Mus musculus, read-out: MES EC50, free brain.
[17] abbreviates: male CD‐1 mice, po, total brain.

T1 sequence (Q9UQD0 whole entry): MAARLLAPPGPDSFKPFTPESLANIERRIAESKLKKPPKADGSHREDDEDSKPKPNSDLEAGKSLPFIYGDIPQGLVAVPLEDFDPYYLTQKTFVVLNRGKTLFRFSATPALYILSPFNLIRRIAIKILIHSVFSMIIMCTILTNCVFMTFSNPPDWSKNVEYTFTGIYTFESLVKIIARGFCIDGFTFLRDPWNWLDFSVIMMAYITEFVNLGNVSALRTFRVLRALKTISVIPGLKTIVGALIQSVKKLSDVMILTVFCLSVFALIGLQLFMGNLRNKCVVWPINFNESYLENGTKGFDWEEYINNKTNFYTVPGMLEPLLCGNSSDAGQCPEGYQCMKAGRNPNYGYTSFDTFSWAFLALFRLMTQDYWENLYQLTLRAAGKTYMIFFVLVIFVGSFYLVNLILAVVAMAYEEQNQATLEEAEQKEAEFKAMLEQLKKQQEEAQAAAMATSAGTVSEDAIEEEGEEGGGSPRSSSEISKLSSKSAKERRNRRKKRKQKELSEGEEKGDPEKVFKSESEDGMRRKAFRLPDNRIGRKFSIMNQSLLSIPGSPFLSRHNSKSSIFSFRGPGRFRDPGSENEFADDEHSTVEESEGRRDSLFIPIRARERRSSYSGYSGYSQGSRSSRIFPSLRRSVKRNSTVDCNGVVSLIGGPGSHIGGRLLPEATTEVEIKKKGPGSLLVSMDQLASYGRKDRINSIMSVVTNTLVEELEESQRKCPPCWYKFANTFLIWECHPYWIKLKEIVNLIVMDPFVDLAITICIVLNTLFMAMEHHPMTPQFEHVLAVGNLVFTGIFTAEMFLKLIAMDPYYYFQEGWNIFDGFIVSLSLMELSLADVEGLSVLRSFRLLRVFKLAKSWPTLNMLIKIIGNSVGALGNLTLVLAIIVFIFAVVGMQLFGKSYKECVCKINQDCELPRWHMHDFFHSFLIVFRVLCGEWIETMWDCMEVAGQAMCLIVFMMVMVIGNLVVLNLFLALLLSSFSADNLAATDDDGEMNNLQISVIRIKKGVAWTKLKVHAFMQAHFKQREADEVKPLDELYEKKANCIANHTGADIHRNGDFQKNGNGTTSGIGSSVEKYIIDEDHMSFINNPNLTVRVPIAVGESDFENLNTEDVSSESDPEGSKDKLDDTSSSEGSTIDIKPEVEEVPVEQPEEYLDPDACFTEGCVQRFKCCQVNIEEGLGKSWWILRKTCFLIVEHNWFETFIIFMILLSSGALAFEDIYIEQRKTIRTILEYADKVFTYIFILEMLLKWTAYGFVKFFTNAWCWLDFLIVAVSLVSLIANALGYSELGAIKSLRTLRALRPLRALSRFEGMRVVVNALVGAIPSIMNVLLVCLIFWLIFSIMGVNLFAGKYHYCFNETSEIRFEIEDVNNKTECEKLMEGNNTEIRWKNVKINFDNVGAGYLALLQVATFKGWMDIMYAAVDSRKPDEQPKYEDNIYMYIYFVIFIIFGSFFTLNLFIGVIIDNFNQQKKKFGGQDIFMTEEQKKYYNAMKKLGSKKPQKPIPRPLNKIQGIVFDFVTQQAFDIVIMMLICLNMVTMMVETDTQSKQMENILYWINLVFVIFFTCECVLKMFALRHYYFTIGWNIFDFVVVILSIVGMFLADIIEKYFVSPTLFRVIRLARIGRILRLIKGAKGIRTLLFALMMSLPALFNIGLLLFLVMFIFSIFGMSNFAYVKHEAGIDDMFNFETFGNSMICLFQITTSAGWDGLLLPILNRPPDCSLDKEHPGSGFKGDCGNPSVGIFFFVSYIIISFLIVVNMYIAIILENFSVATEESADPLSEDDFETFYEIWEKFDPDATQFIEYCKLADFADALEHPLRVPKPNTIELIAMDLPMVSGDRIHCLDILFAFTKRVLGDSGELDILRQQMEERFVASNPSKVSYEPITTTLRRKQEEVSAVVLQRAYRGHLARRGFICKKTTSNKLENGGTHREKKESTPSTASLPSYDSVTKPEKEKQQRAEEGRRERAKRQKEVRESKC
T2 sequence (Q99250 whole entry): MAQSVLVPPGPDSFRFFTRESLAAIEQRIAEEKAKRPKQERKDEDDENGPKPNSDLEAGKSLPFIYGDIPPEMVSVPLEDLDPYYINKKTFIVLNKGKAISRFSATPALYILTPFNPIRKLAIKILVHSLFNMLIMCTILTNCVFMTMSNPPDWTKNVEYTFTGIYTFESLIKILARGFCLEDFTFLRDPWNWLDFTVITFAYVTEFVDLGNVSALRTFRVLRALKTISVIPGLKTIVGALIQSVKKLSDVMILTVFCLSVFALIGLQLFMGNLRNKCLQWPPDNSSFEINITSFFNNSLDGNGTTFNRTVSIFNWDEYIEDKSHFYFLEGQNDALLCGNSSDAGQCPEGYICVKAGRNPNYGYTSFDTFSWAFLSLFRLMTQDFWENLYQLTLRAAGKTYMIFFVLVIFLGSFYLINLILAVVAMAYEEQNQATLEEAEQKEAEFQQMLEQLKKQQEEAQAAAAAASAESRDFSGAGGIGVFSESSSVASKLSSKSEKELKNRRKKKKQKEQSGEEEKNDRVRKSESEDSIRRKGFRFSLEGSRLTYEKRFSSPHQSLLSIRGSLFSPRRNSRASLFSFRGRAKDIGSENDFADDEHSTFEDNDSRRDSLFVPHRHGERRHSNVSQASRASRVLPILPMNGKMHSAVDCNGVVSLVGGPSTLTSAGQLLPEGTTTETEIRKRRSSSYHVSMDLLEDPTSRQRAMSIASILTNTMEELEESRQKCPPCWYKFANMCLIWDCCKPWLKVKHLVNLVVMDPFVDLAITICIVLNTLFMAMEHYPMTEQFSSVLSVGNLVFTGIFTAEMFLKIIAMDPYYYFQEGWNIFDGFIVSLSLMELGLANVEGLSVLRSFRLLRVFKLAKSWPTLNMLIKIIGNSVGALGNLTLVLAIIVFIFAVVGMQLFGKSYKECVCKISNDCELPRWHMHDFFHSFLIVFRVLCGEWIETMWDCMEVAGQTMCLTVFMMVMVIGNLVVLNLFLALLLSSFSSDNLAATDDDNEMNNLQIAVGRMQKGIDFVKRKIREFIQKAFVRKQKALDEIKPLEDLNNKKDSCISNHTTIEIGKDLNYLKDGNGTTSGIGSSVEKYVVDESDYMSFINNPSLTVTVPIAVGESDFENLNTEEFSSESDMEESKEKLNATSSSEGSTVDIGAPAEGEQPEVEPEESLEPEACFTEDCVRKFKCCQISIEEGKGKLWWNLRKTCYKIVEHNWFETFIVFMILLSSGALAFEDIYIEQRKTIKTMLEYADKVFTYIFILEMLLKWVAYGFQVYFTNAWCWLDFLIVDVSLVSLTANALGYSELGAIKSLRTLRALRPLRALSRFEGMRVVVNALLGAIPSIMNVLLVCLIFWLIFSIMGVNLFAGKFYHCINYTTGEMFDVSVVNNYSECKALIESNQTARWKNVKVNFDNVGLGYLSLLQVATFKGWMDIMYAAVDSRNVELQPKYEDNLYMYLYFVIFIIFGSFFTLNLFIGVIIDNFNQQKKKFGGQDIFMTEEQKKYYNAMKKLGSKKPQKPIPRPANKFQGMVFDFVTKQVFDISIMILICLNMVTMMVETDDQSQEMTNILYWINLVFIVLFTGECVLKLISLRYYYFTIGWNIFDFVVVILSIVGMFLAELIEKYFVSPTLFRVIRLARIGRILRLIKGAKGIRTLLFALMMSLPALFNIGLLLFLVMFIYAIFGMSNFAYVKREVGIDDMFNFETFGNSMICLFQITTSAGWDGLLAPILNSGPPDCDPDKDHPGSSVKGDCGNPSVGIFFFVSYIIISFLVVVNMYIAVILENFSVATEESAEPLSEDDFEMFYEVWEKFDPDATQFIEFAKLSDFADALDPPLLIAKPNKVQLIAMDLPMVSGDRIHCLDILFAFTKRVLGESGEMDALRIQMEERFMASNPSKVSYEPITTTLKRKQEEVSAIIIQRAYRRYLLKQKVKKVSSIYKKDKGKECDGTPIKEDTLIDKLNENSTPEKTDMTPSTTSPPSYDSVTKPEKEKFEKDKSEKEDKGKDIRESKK

Consider `NC(=O)N1c2ccccc2C=Cc2ccccc21` [Carbamazepine, carbamazepine], for which, in data set [1], the “Peak INa TB, slope” value was 1.0. Moreover, in [2], the “Persistent INa, slope” value was 1.1. In [2] (Persistent INa, IC50, hNaV1.6, 200 nmol·L^–1 ATX‐II, holding −120 mV), this molecule gave a negative logarithm of the IC50 (pIC50) of 4.11. Also, the “PI (plasma TC50/plasma EC50)” value in data set [3] is 3.4. In addition, the pEC50 in data set [4] (setting [16]) was 5.62. In addition, the “MES ED50 (increasing latency to tonic extension seizures)” value in [4] (male CD‐1 mice, listed as CBZ) came to 3.4 mg/kg. The “Peak INa VDB, slope” value in [5] is “.9”. Besides, in data set [6], the “Peak INa UDB, 10 Hz, slope” value is “.9” and the “Use‐dependent block at a stimulation frequency of 10 Hz” value is reported as “not observed”. Also, in data set [7] (ip), the “Sedation/sLMA at the dose required for complete seizure prevention” value is recorded as “significant reduction in sLMA”. Also, the “sLMA TD50” value in [7] (male CD‐1 mice, listed as CBZ) was determined as 26.5 mg/kg. In addition, the “sLMA TC50, free brain” value in data set [7] (male CD‐1 mice) is on record as 14 350 nmol·L^–1.
Take `NC(=O)O[C@@H](Cn1ncnn1)c1ccccc1Cl` [Cenobamate]: in [1], the “Peak INa TB, slope” value is given as 1.1 and the “Ratio to persistent INa (peak INa TB)” value was found to be 24. The “Persistent INa, slope” value in data set [2] turned out to be 1.1. In data set [5], the “Peak INa VDB, slope” value is on record as “.9” and the “Ratio to persistent INa (peak INa VDB)” value is recorded as “.9”. In data set [6], the “Peak INa UDB, 10 Hz, slope” value is given as “.7”; the “Ratio to persistent INa (peak INa UDB)” value is 11; the “Ratio to peak INa TB (peak INa UDB)” value stood at 2.3.
In the case of `COC[C@@H](NC(C)=O)C(=O)NCc1ccccc1` [Lacosamide], in [2], the “Persistent INa, slope” value is given as “.9”. Besides, in [5], the “Peak INa VDB, slope” value is 1.2 and the “Ratio to persistent INa (peak INa VDB)” value is reported as “.3”. Further, in data set [6], the “Peak INa UDB, 10 Hz, slope” value is listed as 1.3 and the “Ratio to persistent INa (peak INa UDB)” value is reported as “.8”.
Turning to `Nc1nnc(-c2cccc(Cl)c2Cl)c(N)n1` [Lamotrigine, lamotrigine], the “Peak INa TB, slope” value in data set [1] was “.8”. Further, the “Persistent INa, slope” value in data set [2] was found to be 1.0. Also, the pEC50 in [4] (setting [16]) is 5.56. The “MES ED50 (increasing latency to tonic extension seizures)” value in data set [4] (male CD‐1 mice, listed as LTG) is 5.0 mg/kg. Further, the “Peak INa VDB, slope” value in data set [5] was “.9”. Moreover, in [6], the “Peak INa UDB, 10 Hz, slope” value is on record as 1.0 and the “Use‐dependent block at a stimulation frequency of 10 Hz” value is listed as “not observed”. The “sLMA TD50” value in data set [7] (male CD‐1 mice, listed as LTG) amounted to 37.6 mg/kg. The “sLMA TC50, free brain” value in data set [7] (male CD‐1 mice) is given as 12 853 nmol·L^–1.
`NC(=O)N1c2ccccc2CC(=O)c2ccccc21` [Oxcarbazepine]: in data set [1], the “Peak INa TB, slope” value came to 1.7 and the “Ratio to persistent INa (peak INa TB)” value worked out at 8. Besides, the “Persistent INa, slope” value in data set [2] was 1.0. In data set [5], the “Peak INa VDB, slope” value was determined as 1.1 and the “Ratio to persistent INa (peak INa VDB)” value is reported as “.3”.
For `FC(F)(F)Oc1ccc(-c2ccc3nnc(C(F)(F)F)n3c2)cc1` [PRAX‐330], the “Seizures and premature death in NaV DEE mouse models” value in [8] is “protected mice from seizures and premature death”.
In the case of `CCOC(F)(F)c1nnc2cnc(-c3cnc(OCC(F)(F)F)c(F)c3)cn12` [PRAX‐562, 3‐[ethoxydifluoromethyl]‐6‐[5‐fluoro‐6‐(2,2,2‐trifluoroethoxy)pyridin‐3‐yl]‐[1,2,4]triazolo[4,3‐a]pyrazine], in data set [1], the “Peak INa TB, slope” value turned out to be 1.0 and the “Ratio to persistent INa (peak INa TB)” value turned out to be 60. In addition, in data set [1] (Peak INa TB, IC50, hNaV1.6 tonic block, .1 Hz), the negative-log IC50 (pIC50) was 5.07. In [2], the “Persistent INa, slope” value came out at 1.2. Also, the “Ratio to Persistent INa (Peak INa TB), hNaV1.2” value in data set [9] amounted to 80. Also, the “Ratio to Persistent INa (Peak INa VDB), hNaV1.5” value in [10] is reported as 5.8. Moreover, the “Ratio to Persistent INa (Peak INa TB), hNaV1.1” value in [11] is 173. Besides, the “PI wider compared to CBZ and LTG” value in [3] (acute, MES and sLMA models) is recorded as 3 ×. The “PI (plasma TC50/plasma EC50)” value in data set [3] is listed as approximately 17. Further, the “Ratio to Persistent INa (Peak INa TB), hNaV1.5” value in data set [12] was more than 174. Further, the “Intrinsic excitability, number of evoked APs” value in [13] (.3 µmol·L^–1) is recorded as “significantly reduced”. For the same molecule, the AP amplitude result in data set [13] (.3 µmol·L^–1, +200 pA) is given as “minimal effects”. For the same molecule, the “Mice that did not exhibit tonic seizures” value in data set [4] (10 mg/kg po, 30 min before MES) is reported as 11 of 12. The EC50 in data set [4] (Mus musculus, po, read-out: MES EC50, plasma) was 0.0901 µg/mL. Moreover, in data set [4] (Mus musculus, po, read-out: MES EC50, plasma, free), the negative logarithm of the EC50 (pEC50) is 7.75. Moreover, the pEC50 in [4] (setting [16]) was 8.37. In data set [4] (setting [17]), the “MES EC50, brain” value is 116 ng/g. Besides, in data set [5], the “Peak INa VDB, slope” value amounted to 1.0 and the “Ratio to persistent INa (peak INa VDB)” value is 2.2. Further, in [14], the “Ratio to Persistent INa (Peak INa VDB), hNaV1.1” value is 6.3. Further, in data set [6], the “Peak INa UDB, 10 Hz, slope” value is recorded as 1.3; the “Ratio to persistent INa (peak INa UDB)” value worked out at 2; the “Ratio to peak INa TB (peak INa UDB)” value was 31. The “Effect on locomotor function” value in data set [7] (10 mg/kg po) is “no effect”. In addition, the “Distance moved in sLMA” value in data set [7] (20 and 40 mg/kg po) was “reductions in the distance moved”. Further, in data set [7] (male CD‐1 mice, po, free plasma), the “sLMA TC50, plasma, free” value stood at 308.9 nmol·L^–1. The “sLMA TC50, brain” value in data set [7] (setting [17]) worked out at 1899 ng/g. The “sLMA TC50, plasma” value in data set [7] (male CD‐1 mice, po, total plasma) is 1.553 µg/mL. Besides, the “sLMA TC50, free brain” value in data set [7] (male CD‐1 mice) is given as 69.7 nmol·L^–1. Besides, in [15], the “Ratio to Persistent INa (Peak INa VDB), hNaV1.2” value was determined as 8.2.
`O=C1NC(=O)C(c2ccccc2)(c2ccccc2)N1` [Phenytoin]: in data set [2], the “Persistent INa, slope” value is on record as “.8”. For the same molecule, in [5], the “Peak INa VDB, slope” value turned out to be 1.0 and the “Ratio to persistent INa (peak INa VDB)” value is “.8”. In data set [6], the “Peak INa UDB, 10 Hz, slope” value is given as “.6” and the “Ratio to persistent INa (peak INa UDB)” value amounted to 15.
